In patent US12371428B2 (Exelixis, Inc., priority 2019, dated 2025) one finds IC50 data, which are given here for 14 molecules.

Structures are written as SMILES. Counter-ions that a name gives are not always drawn. A value given as a limit tells only on which side of the number the result lay.

In test [1] the target is Mer (phospho-Mer, MERTK-transfected 293A cells) (Homo sapiens (Human), UniProt Q12866). The test is described as follows: Mer autophosphorylation ELISA in transient transfected 293A cells (Example H). Type of test: cell-based. To be noted: cellular activity; Mer autophosphorylation ELISA in transient transfected 293A cells. The method, boiled down:
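IC50 from 4-parameter logistic fit of phospho-Mer levels, quantified by ELISA against a phospho-Mer standard in lysates of MERTK-transfected 293A cells. Cells exposed 1 h to 8-point serial dilutions, serum-free, 0.3% DMSO; controls: DMSO (100%) and reference inhibitor (0%).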

The target in test [2] is Human KDR (residues 790-1356) (Homo sapiens (Human), UniProt P35968). The test is described as follows: Human KDR kinase assay, HTRF KinEase (Example B-2). The test is classed as biochemical. The following applies: protocol of Example B-2. Put shortly: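 Ten compound concentrations (3% DMSO final) were pre-plated, then KDR (790-1356) with biotinylated peptide in Mg/Mn/DTT buffer was added; ATP at Km (4.0 μM) started a 40 min room-temperature reaction. Detection used Eu-TK antibody and SA-XL665 in EDTA buffer; activity normalized to DMSO and reference inhibitor, IC50 by logistic fit.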
Sequence of Human KDR (residues 790-1356) (P35968 790-1356): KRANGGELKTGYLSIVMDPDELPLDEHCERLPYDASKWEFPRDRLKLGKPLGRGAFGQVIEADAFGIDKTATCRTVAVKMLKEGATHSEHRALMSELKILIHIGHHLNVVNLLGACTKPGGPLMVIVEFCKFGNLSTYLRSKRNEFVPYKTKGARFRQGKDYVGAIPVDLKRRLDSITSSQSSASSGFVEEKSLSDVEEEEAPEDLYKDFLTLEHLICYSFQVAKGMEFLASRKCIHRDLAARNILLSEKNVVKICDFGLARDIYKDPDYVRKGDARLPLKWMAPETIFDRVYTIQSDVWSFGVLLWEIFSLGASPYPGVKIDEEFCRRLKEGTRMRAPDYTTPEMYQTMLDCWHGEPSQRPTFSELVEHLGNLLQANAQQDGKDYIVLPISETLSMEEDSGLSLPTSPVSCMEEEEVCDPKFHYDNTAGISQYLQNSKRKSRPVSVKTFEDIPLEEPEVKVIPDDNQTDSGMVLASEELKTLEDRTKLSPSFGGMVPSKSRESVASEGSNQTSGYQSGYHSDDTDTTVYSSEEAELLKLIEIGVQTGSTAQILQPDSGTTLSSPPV
In general terms: Time-resolved FRET reads energy transfer from a long-lived donor to a nearby acceptor.

In test [3] the target is Human MET (residues 956-1390) (Homo sapiens (Human), UniProt P08581). The test is described as follows: Human Met kinase assay, HTRF KinEase (Example D-2). The test is classed as biochemical. The following applies: protocol of Example D-2; read-out: c-Met IC50. The method, boiled down: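 IC50 values come from a 4-parameter logistic fit of the […] fluorescence ratio, set between DMSO (100%) and reference compound at 1 μM (0%). Reactions held MET 956-1390 at 0.1 ng/well, ATP at Km, biotinylated peptide, 5 mM MgCl2, 1 mM MnCl2, 1 mM DTT and 3% DMSO, and ran 40 min at room temperature before streptavidin-XL665/Eu-antibody detection.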
Sequence of Human MET (residues 956-1390) (P08581 956-1390): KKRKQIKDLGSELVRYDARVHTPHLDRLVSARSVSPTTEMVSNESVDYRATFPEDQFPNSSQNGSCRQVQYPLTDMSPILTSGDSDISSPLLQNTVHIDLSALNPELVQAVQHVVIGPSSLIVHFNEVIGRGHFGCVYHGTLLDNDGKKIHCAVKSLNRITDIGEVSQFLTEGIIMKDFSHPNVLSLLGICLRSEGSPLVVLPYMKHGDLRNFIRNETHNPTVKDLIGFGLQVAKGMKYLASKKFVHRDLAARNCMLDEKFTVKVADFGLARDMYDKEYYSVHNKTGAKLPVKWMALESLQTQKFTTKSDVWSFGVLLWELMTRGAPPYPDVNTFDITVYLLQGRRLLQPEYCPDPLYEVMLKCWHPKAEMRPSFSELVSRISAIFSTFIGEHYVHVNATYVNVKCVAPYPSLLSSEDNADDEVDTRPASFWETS

Test [4] deals with Human MER (residues 528-999) (Homo sapiens (Human), UniProt Q12866). The test is described as follows: Human Mer kinase assay, HTRF KinEase (Example C-2). Type of test: biochemical. To be noted: protocol of Example C-2. Put shortly:
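IC50 values from 10 concentrations via 4-parameter logistic fit of […], with DMSO as 100% and 1 μM reference compound as 0% activity. Reaction: MER kinase domain 528-999, 1 ng/well, 40 μM ATP (Km), biotin peptide, 5 mM MgCl2, 1 mM DTT, 3% DMSO, room temperature 60 min; HTRF streptavidin-XL665/Eu-antibody detection.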

Sequence of Human MER (residues 528-999) (Q12866 528-999): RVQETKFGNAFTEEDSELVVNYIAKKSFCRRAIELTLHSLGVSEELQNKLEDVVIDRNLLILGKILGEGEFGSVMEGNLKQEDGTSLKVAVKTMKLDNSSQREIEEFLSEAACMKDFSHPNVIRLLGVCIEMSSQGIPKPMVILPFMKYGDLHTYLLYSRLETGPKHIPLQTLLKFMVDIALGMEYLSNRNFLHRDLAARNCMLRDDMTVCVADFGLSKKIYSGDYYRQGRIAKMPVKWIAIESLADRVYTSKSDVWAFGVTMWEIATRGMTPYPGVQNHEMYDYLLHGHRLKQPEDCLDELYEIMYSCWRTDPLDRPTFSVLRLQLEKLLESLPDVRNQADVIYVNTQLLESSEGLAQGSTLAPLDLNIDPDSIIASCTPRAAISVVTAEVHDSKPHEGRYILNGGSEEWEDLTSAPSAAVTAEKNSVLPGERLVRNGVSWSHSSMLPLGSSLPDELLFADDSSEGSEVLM
Sequence of Mer (phospho-Mer, MERTK-transfected 293A cells) (Q12866 21-999): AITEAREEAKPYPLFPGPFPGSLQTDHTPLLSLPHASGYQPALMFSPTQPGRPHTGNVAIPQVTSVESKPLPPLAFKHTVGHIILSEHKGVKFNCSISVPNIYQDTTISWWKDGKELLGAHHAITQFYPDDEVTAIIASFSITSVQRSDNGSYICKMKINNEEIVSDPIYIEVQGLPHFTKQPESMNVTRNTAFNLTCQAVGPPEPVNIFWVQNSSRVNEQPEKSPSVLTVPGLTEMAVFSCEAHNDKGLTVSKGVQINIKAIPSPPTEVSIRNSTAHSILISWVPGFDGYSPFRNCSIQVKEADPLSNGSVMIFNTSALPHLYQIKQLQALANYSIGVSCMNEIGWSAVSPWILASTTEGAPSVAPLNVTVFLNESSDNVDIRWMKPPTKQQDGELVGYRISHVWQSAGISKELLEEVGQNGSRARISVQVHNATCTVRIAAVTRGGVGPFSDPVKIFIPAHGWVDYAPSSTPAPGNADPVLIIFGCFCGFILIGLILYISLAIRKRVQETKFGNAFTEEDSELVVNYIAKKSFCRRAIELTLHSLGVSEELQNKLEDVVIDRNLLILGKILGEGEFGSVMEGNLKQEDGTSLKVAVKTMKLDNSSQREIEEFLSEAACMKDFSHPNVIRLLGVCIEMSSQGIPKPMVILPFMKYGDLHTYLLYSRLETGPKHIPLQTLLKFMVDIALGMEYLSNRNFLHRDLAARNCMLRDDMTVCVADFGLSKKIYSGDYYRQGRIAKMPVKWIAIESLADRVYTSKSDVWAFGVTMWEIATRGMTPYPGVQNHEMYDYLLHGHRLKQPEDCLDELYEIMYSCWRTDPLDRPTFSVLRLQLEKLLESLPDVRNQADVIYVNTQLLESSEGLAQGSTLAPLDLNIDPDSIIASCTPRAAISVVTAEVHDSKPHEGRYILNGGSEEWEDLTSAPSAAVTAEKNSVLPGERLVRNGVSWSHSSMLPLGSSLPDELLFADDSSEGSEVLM

The IC50 is the point on the concentration scale where inhibition reaches its midpoint. As to `Cc1nc2c(Oc3ccc(NC(=O)c4cnc(C)c(-c5ccc(F)cc5)c4O)cc3)ccnc2cc1-c1cccnc1` [Compound 616, 5-(4-Fluorophenyl)-4-hydroxy-6-methyl-N-[4-[(6-methyl-7-pyridin-3-yl-1,5-naphthyridin-4-yl)oxy]phenyl]pyridine-3-carboxamide hydrochloride], the IC50 in test [1] is 100 to 300 nM; in test [2] it was over 300 nM; in test [3] it was under 100 nM; in test [4], under 100 nM.
On to `Cc1nc2c(Oc3ccc(NC(=O)c4cnc(C)c(-c5ccc(F)cc5)c4O)cc3)ccnc2cc1-c1cnn(C(F)F)c1` [Compound 617, N-[4-[[7-[1-(Difluoromethyl)pyrazol-4-yl]-6-methyl-1,5-naphthyridin-4-yl]oxy]phenyl]-5-(4-fluorophenyl)-4-hydroxy-6-methylpyridine-3-carboxamide hydrochloride], for which the IC50 in test [1] is under 100 nM; in test [2] it was 100 to 300 nM; in test [3], under 100 nM; in test [4], under 100 nM.
As for `Cc1nc2c(Oc3ccc(NC(=O)c4cnc(C)c(-c5ccc(F)cc5)c4O)cc3F)ccnc2cc1-c1cccnc1` [Compound 618, N-[3-Fluoro-4-[(6-methyl-7-pyridin-3-yl-1,5-naphthyridin-4-yl)oxy]phenyl]-5-(4-fluorophenyl)-4-hydroxy-6-methylpyridine-3-carboxamide hydrochloride], the concentration for half-maximal inhibition (IC50) is under 100 nM in test [1], 100 to 300 nM in test [2], under 100 nM in test [3] and under 100 nM in test [4].
With `COc1cc2nccc(Oc3ccc(NC(=O)c4cn(CCO)c(C)c(-c5ccc(F)cc5)c4=O)cc3F)c2nc1OC` [Compound 619, N-[4-[(6,7-Dimethoxy-1,5-naphthyridin-4-yl)oxy]-3-fluorophenyl]-5-(4-fluorophenyl)-1-(2-hydroxyethyl)-6-methyl-4-oxopyridine-3-carboxamide], the IC50 is under 100 nM in test [1], over 300 nM in test [2], under 100 nM in test [3] and under 100 nM in test [4].
Turning to `Cc1nc2c(Oc3ccc(NC(=O)c4cn(C(C)C)c(C)c(-c5ccc(F)cc5)c4=O)cc3F)ccnc2cc1-c1cccnc1` [Compound 620, N-[3-Fluoro-4-[(6-methyl-7-pyridin-3-yl-1,5-naphthyridin-4-yl)oxy]phenyl]-5-(4-fluorophenyl)-6-methyl-4-oxo-1-propan-2-ylpyridine-3-carboxamide], the half-inhibitory concentration (IC50) in test [1] was under 100 nM; in test [2], over 300 nM; in test [3] it was under 100 nM; in test [4] it was under 100 nM.
As to `COc1cc2ncnc(Oc3ccc(NC(=O)c4cn(C(C)C)cc(-c5ccc(F)cc5)c4=O)cc3F)c2nc1OC` [Compound 636, N-[4-(6,7-dimethoxypyrido[3,2-d]pyrimidin-4-yl)oxy-3-fluorophenyl]-5-(4-fluorophenyl)-4-oxo-1-propan-2-ylpyridine-3-carboxamide], the 50% inhibitory concentration (IC50) in test [1], in test [2], in test [3] and in test [4] was under 100 nM throughout.
For the molecule `COc1cc2ncnc(Oc3ccc(NC(=O)c4cn(-c5cnn(C)c5)cc(-c5ccc(F)cc5)c4=O)cc3F)c2nc1OC` [Compound 637, N-[4-(6,7-dimethoxyprido[3,2-d]pyrimidin-4-yl)oxy-3-fluorophenyl]-5-(4-fluorophenyl)-1-(1-methylpyrazol-4-yl)-4-oxopyridine-3-carboxamide], the IC50 in test [1] is under 100 nM; in test [2] it was over 300 nM; in test [3], under 100 nM; in test [4] it was under 100 nM.
For `COc1cc2c(Oc3ccc(NC(=O)c4cnc(C)c(-c5ccc(F)cc5)c4O)cc3F)ccnc2cn1` [Compound 639, N-[3-fluoro-4-[(6-methoxy-1,7-naphthyridin-4-yl)oxy]phenyl]-5-(4-fluorophenyl)-4-hydroxy-6-methylpyridine-3-carboxamide], the IC50 in test [1] was under 100 nM; in test [2], over 300 nM; in test [3], under 100 nM; in test [4], under 100 nM.
In the case of `COc1cc2c(Oc3ccc(NC(=O)c4cn(C5CC5)c(C)c(-c5ccc(F)cc5)c4=O)cc3F)ccnc2cn1` [Compound 640, 1-cyclopropyl-N-[3-fluoro-4-[(6-methoxy-1,7-naphthyridin-4-yl)oxy]phenyl]-5-(4-fluorophenyl)-6-methyl-4-oxopyridine-3-carboxamide], the IC50 in test [1] was under 100 nM; in test [2], over 300 nM; in test [3], under 100 nM; in test [4], under 100 nM.
Regarding `Cc1ncc(C(=O)Nc2ccc(Oc3ccnc4cnc(Cl)cc34)c(F)c2)c(O)c1-c1ccc(F)cc1` [Compound 641, N-[4-[(6-chloro-1,7-naphthyridin-4-yl)oxy]-3-fluorophenyl]-5-(4-fluorophenyl)-4-hydroxy-6-methylpyridine-3-carboxamide], the half-inhibitory concentration (IC50) was under 100 nM in test [1], over 300 nM in test [2], 100 to 300 nM in test [3] and under 100 nM in test [4].
`Cc1ncc(C(=O)Nc2ccc(Oc3ccnc4cnccc34)c(F)c2)c(O)c1-c1ccc(F)cc1` [Compound 642, N-[3-fluoro-4-(1,7-naphthyridin-4-yloxy)phenyl]-5-(4-fluorophenyl)-4-hydroxy-6-methylpyridine-3-carboxamide]: the half-maximal inhibitory concentration (IC50) in test [1], in test [2], in test [3] and in test [4] was under 100 nM in each case.
Consider `Cc1ncc(C(=O)Nc2ccc(Oc3ccnc4cnccc34)cc2)c(O)c1-c1ccc(F)cc1` [Compound 643, 5-(4-fluorophenyl)-4-hydroxy-6-methyl-N-[4-(1,7-naphthyridin-4-yloxy)phenyl]pyridine-3-carboxamide], for which the IC50 in test [1], in test [2], in test [3] and in test [4] was under 100 nM throughout.
Consider `COc1cc2c(Oc3ccc(NC(=O)c4cnc(C)c(-c5ccc(F)cc5)c4O)cc3)ccnc2cn1` [Compound 644, 5-(4-fluorophenyl)-4-hydroxy-N-[4-[(6-methoxy-1,7-naphthyridin-4-yl)oxy]phenyl]-6-methylpyridine-3-carboxamide], for which the half-maximal inhibitory concentration (IC50) in test [1] was under 100 nM; in test [2], 100 to 300 nM; in test [3], under 100 nM; in test [4] it was under 100 nM.
As to `Cc1cc2c(Oc3ccc(NC(=O)c4cnc(C)c(-c5ccc(F)cc5)c4O)cc3F)ccnc2cn1` [Compound 645, N-[3-fluoro-4-[(6-methyl-1,7-naphthyridin-4-yl)oxy]phenyl]-5-(4-fluorophenyl)-4-hydroxy-6-methylpyridine-3-carboxamide], the IC50 in test [1], in test [2], in test [3] and in test [4] was under 100 nM in each case.
